Source: PMC9496400, “Structural Comparison of hMDH2 Complexed with Natural Substrates and Cofactors: The Importance of Phosphate Binding for Active Conformation and Catalysis” (Biomolecules, 2022)

Experiments:
Assay type in all cases: binding
[1] = biological target: T1, human mitochondrial malate dehydrogenase (hMDH2) (Homo sapiens, UniProt P40926); test: crystal structure ([…] Å; also with NAD, 4WLU, […] Å)
T1 construct: gene MDH2
T1 sequence (P40926 19-338): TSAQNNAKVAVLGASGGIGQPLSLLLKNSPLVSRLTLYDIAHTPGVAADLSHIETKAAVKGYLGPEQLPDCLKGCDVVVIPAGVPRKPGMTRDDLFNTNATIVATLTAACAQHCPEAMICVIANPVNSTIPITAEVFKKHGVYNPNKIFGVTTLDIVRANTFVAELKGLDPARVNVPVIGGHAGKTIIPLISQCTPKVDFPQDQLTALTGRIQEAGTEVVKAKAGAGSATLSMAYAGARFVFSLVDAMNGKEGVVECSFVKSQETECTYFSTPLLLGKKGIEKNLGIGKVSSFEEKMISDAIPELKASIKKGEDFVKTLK

[2] = biological target: T1, human mitochondrial malate dehydrogenase (hMDH2); test: ITC direct titration; crystal structure with oxaloacetate
[3] = biological target: T1, human mitochondrial malate dehydrogenase (hMDH2); test: crystal structure ([…] Å); competitive replacement ITC with NADH
[4] = biological target: T1, human mitochondrial malate dehydrogenase (hMDH2); test: crystal structure ([…] Å)
[5] = biological target: T1, human mitochondrial malate dehydrogenase (hMDH2); test: crystal structure of the ternary complex with NADH ([…] Å)
[6] = biological target: T1, human mitochondrial malate dehydrogenase (hMDH2); test: crystal structure ([…] Å); enzyme activity increased by phosphate

O=C(O)C[C@H](O)C(=O)O [L-malate]
crystal structure (2.20 Å; also with NAD, 4WLU, 2.14 Å) [1]: Both L-malate and citrate bound in the same site of hMDH2 and formed hydrogen bonds with the surrounding residues

NC(=O)C1=CN([C@@H]2O[C@H](COP(=O)(O)OP(=O)(O)OC[C@H]3O[C@@H](n4cnc5c(N)ncnc54)[C@H](O)[C@@H]3O)[C@@H](O)[C@H]2O)C=CC1 [NADH]
Kd [2]: 3.05 µM

NC(=O)c1ccc[n+]([C@@H]2O[C@H](COP(=O)([O-])OP(=O)(O)OC[C@H]3O[C@@H](n4cnc5c(N)ncnc54)[C@H](O)[C@@H]3O)[C@@H](O)[C@H]2O)c1 [NAD]
Kd [3]: 2310 µM

O=C(O)CC(O)(CC(=O)O)C(=O)O [citrate]
crystal structure (1.90 Å) [4]: The citrate occupied the substrate binding site in the refined structure.

O=C(O)CC(=O)C(=O)O [oxaloacetate]
crystal structure of the ternary complex with NADH (2.50 Å) [5]: Arg104 paired with only one oxygen atom of oxaloacetate

O=P(O)(O)O [phosphate]
crystal structure (2.28 Å); enzyme activity increased by phosphate [6]: two phosphate ions were located in the substrate binding site and a third in the position of the ribose ring
